Test results as given in BigSolDB 2.1.

CC(=O)N[C@@H](Cc1ccc(O)cc1)C(=O)O
solubility (mole fraction)
Conditions | 283.15 K | 288.15 K | 293.15 K | 298.15 K | 303.15 K | 308.15 K | 313.15 K | 318.15 K | 323.15 K
in acetone | 0.106 | 0.116 | 0.132 | 0.136 | 0.145 | 0.152 | 0.166 | 0.181 | 0.197
in acetonitrile | 0.00301 | 0.00353 | 0.00436 | 0.00526 | 0.0064 | 0.00795 | 0.00988 | 0.0129 | 0.017
in dimethyl carbonate | 0.00114 | 0.00122 | 0.00127 | 0.0015 | 0.00224 | 0.00267 | 0.00307 | 0.00373 | 0.00404
in ethyl acetate | 0.00383 | 0.00412 | 0.00477 | 0.00507 | 0.00577 | 0.00655 | 0.0073 | 0.00849 | 0.0102
in isobutanol | 0.0349 | 0.0378 | 0.0468 | 0.0522 | 0.06 | 0.0683 | 0.0777 | 0.0853 | 0.0973
in isopentanol | 0.0363 | 0.0394 | 0.0487 | 0.05 | 0.0568 | 0.0634 | 0.0635 | 0.0749 | 0.0807
in isopropanol | 0.0772 | 0.0942 | 0.105 | 0.111 | 0.122 | 0.134 | 0.148 | 0.159 | 0.171
in methyl acetate | 0.00475 | 0.00537 | 0.00621 | 0.00723 | 0.0085 | 0.00995 | 0.0115 | 0.0139 | 0.0162
in n-butanol | 0.0529 | 0.058 | 0.0653 | 0.0715 | 0.0789 | 0.0892 | 0.0911 | 0.0979 | 0.108
in n-butyl acetate | 0.00136 | 0.00179 | 0.00214 | 0.00252 | 0.003 | 0.00351 | 0.00388 | 0.00413 | 0.00435
in n-propyl acetate | 0.00163 | 0.00185 | 0.00232 | 0.00261 | 0.00289 | 0.00366 | 0.0041 | 0.00509 | 0.00537
in sec-butanol | 0.08 | 0.0885 | 0.0967 | 0.103 | 0.113 | 0.125 | 0.137 | 0.146 | 0.159
in water | 0.00875 | 0.00935 | 0.0115 | 0.0154 | 0.021 | 0.0292 | 0.0459 | 0.0726 | 0.106
